Test results: patent US12029730B2, “Pharmaceutical composition for preventing or treating cancer, containing N-1H-benzimidazol-2-yl-3-(1H-pyrrole-1-yl)benzamide as active ingredient” (KOREA INSTITUTE OF RADIOLOGICAL & MEDICAL SCIENCES, priority 2018, dated 2024)

How the values were obtained:
Type in all cases: cell-based, human
[1] = tested on: phospho-H3 (S10); experiment: Western blotting of phosphorylated H3 in MCF7 cells; conditions: western blot, FIG. 5
Procedure: (§1) 20 μg of protein was separated by SDS-PAGE electrophoresis and transferred to a PVDF membrane, and the following specific antibodies were used: rabbit polyclonal antibody MASTL (Abgent); phospho-ENSA (Ser67)/ARPP19 (Ser62) (#5240), ENSA (#11915S), cleaved PARP (Asp214) (#9541), AKT (#9272), phospho-AKT (ser473) (#9271), phospho-GSK-3α/β (Ser21/9) (#9331), phospho-p70S6K (The 288) (#9205) and phospho-Chk2 (Thr68) (#2661; Cell Signaling Technology, MA); p70S6K (sc-230; Santa Cruz Biotechnology, CA, USA), phospho-H3 (S10) (06-570, Merck, NJ); mouse monoclonal antibody caspase-2 (#2224S). In addition, mouse […] antibody β-actin (C4; Santa Cruz Biotechnology, CA, USA) was used as a loading control, it was washed with 1×PBS/0.1% Tween 20, and the binding protein was detected using HRP-binding secondary antibody and improved chemiluminescence detection system. The remaining conditions of Western blotting were the same as in Example 3, and the image of the band was obtained by Amersham Imager 600 system (GE Healthcare Life Science) or X-Ray film (AG, HealthCare, SC, USA) and it was shown in FIG. 5.

[2] = tested on: MCF10A cells; experiment: WST-8 cell viability assay, normal cell line MCF10A; conditions: for cell viability, normal cell line MCF10A: 3.70, 11.11, 33.33 and 100 μM, FIG. 6
Procedure: In addition, the cell line in this experiment was distributed from ATCC (American Type Culture Collection; Manassas, VA). Human-derived tumor cell lines, breast cancer cell lines MCF7 and T47D was cultured in DMEM medium containing 10% fetal bovine serum (FBS; HyClone, South Logan, UT) and 1% penicillin/streptomycin (Corning, NY, USA) at 37° C. and 5% CO2, and the BT549 breast cancer cell line was cultured in RPMI 1640 (Welgene, Daegu, Korea) as a medium used under the same conditions. Human-derived normal cell line MCF10A was cultured in DMEM/F12 (Invitrogen) medium containing 5% horse serum (Invitrogen), 1% penicillin/streptomycin, 20 ng/ml EGF (Peprotech, London, UK), […] (Sigma-Aldrich, MO, USA), 100 ng/ml cholera toxin (Cholera Toxin, Sigma-Aldrich) and 10 μg Insulin (Sigma-Aldrich) at 37° C. and 5% CO2.
Briefly, MCF7 and MCF10A cells were seeded into 96-well plates, incubated for 24 hours, and then was treated with 42 inhibitor candidates. Among the compounds, the multi-AGC kinase inhibitor AT13148 was used as a positive control. Thereafter, the absorbance was measured at 450 nm using a Versamax microplate reader (Molecular Devices, CA, USA), and the results of the experiment were shown in FIG. 1A.
In order to confirm whether the selected MKI-1 can kill only cancer cells, an experiment was performed by treating with MKI-1 and measuring whether the cell viability of breast cancer cell lines and normal cell lines was changed. WST-8 analysis (Cyto X™ cell viability assay kit, LPS solution, Daejeon, Korea) was performed according to the manufacturer's protocol. Cancer cells MCF7 and BT549 and normal cell line MCF10A cells were inoculated into a 96-well plate, cultured for 24 hours, and then treated with MASTL kinase inhibitors at various concentrations (3.70, 11.11, 33.33 and 100 μM). Thereafter, the absorbance was measured at 450 nm using a Versamax micro plate reader (Molecular Devices, CA, USA), and the results were shown in FIG. 6.

[3] = tested on: AKT; experiment: Western blotting of AKT and GSK-3 phosphorylation in MCF7 cells; conditions: western blot, FIG. 5
Procedure: as §1

| SMILES | expression level of phosphorylated H3 [1] | cell viability, normal cell line MCF10A [2] | cell viability of normal cell line (MCF10A) ([2]; screen of 42 single compounds, FIG. 1A) | activation of AKT / phosphorylated GSK-3 [3] |
| --- | --- | --- | --- | --- |
| O=C(Nc1nc2ccccc2[nH]1)c1cccc(-n2cccc2)c1 [MKI-1, N-1H-benzimidazol-2-yl-3-(1H-pyrrol-1-yl) benzamide] | increased the expression level of phosphorylated H3 in a dose-dependent manner | hardly decrease cell viability | maintained as high as that of the control group DMSO | did not regulate the activities of AKT and phosphorylated GSK-3P |
| Clc1ccc(Nc2cccc(-c3cn[nH]c3)c2)cc1 [GKI-1, N-(4-chlorophenyl)-3-(1H-pyrazol-4-yl)aniline, reference compound] | – | hardly decrease cell viability | – | – |
